The NIST ThermoML archive (doi:10.1016/j.tca.2006.07.010)
± gives the expanded uncertainty stated by the source.

Experiments:
[1] = Crystal; for mass density: 298 K, 101.33 kPa, Pycnometric method; for Triple point temperature: DTA
[2] = Molar enthalpy of transition or fusion; details: Crystal; DSC
[3] = molar heat capacity at constant pressure; details: 298 K; 101.33 kPa; Crystal; Small sample (50 mg) DSC

| mass density [1] [kg/m3] | Triple point temperature [1] [K] | Molar enthalpy of transition or fusion [2] [kcal/mol] | molar heat capacity at constant pressure [3] [J/K/mol] | SMILES |
| --- | --- | --- | --- | --- |
| 1170 ± 10 | 371.47 ± 0.39 | 5.76 ± 0.198 | 222.5 ± 4.5 | CC(C)c1ccc2occ(C=O)c(=O)c2c1 [3-formyl-6-isopropylchromone] |
| 1470 ± 10 | 444.45 ± 0.39 | 6.41 ± 0.189 | 178.96 ± 3.6 | Cc1ccc2occ(C=O)c(=O)c2c1 [3-formyl-6-methylchromone] |
| 1700 ± 10 | 424.89 ± 0.39 | 6.06 ± 0.136 | 121.04 ± 2.4 | O=Cc1coc2ccccc2c1=O [3-formylchromone] |
